Columns and labels:
Assay in all cases: Microbiological challenge testing in BPW broth, graded subculture counts
Format in all cases: cell-based
[1] = system: Candida albicans Wild type; conditions: C. albicans
In short: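 Wild-type C. albicans grown in TSB with 1% dextrose at 22 °C, then adjusted by turbidity and hemocytometer to a 10^8 CFU/mL challenge confirmed on SABD plates. Challenge added to BPW broth containing 1% dextrose, giving 10^5 to 10^6 CFU/mL at time zero; controls in triplicate. Counts by serial dilution and spread-plating after at least 48 h incubation.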

[2] = system: Bacillus subtilis Wild type
In short: (§1)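 Challenge substrates of BPW plus 1% dextrose containing the test material (w/v) or broth alone were inoculated to 10^5–10^6 CFU/mL. Bacteria had been precultured in dextrose TSB at 35 °C for at least 96 h. CFU/mL came from plate count × dilution factor on PCA after ≥48 h at 35 °C.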

[3] = system: Proteus vulgaris Wild type
In short: as §1

[4] = system: Pseudomonas aeruginosa Wild type; conditions: P. aeruginosa
In short: as §1

[5] = system: Staphylococcus epidermidis ATCC 12228
In short: as §1

OCC1CCC(CO)CC1 (stereo not drawn) [1,4-CHDM, 1,4-cyclohexanedimethanol]
Grade ([1]; 0.5% (wt/vol), 3 day): 3 (100 to 1000 colonies (thus 1000 to 10,000 CFU/mL)) | Grade ([1]; 0.5% (wt/vol), 14 day): 4 (1000 to 10,000 colonies countable (thus 10,000 CFU/mL to 100,000 CFU/mL)) | Grade ([1]; 0.5% (wt/vol), 30 day): 4 (1000 to 10,000 colonies countable (thus 10,000 CFU/mL to 100,000 CFU/mL)) | Grade ([1]; 1.25% (wt/vol), 3 day): 1 (0 to 51 colonies counted (thus 10 to 510 CFU/mL based on 0.1-mL sample)) | Grade ([1]; 1.25% (wt/vol), 14 day): 3 (100 to 1000 colonies (thus 1000 to 10,000 CFU/mL)) | Grade ([1]; 1.25% (wt/vol), 30 day): 4 (1000 to 10,000 colonies countable (thus 10,000 CFU/mL to 100,000 CFU/mL)) | Grade ([1]; 2.5% (wt/vol), 3 day): 0 | Grade ([1]; 2.5% (wt/vol), 14 day): 2 (52 to 100 colonies counted (thus 520 to 1000 CFU/mL)) | Grade ([1]; 2.5% (wt/vol), 30 day): 1 (0 to 51 colonies counted (thus 10 to 510 CFU/mL based on 0.1-mL sample)) | Grade ([1]; 5.0% (wt/vol), 3 day): 0 | Grade ([1]; 5.0% (wt/vol), 14 day): 0 | Grade ([1]; 5.0% (wt/vol), 30 day): 0 | B. subtillis growth grade, 3 day ([2]; 0.5% weight/volume): 4 (1000 to 10,000 colonies countable (thus 10,000 CFU/mL to 100,000 CFU/mL)) | B. subtillis growth grade, 14 day ([2]; 0.5% weight/volume): 4 (1000 to 10,000 colonies countable (thus 10,000 CFU/mL to 100,000 CFU/mL)) | B. subtillis growth grade, 30 day ([2]; 0.5% weight/volume): 4 (1000 to 10,000 colonies countable (thus 10,000 CFU/mL to 100,000 CFU/mL)) | B. subtillis growth grade, 3 day ([2]; 1.25% weight/volume): 4 (1000 to 10,000 colonies countable (thus 10,000 CFU/mL to 100,000 CFU/mL)) | B. subtillis growth grade, 14 day ([2]; 1.25% weight/volume): 4 (1000 to 10,000 colonies countable (thus 10,000 CFU/mL to 100,000 CFU/mL)) | B. subtillis growth grade, 30 day ([2]; 1.25% weight/volume): 4 (1000 to 10,000 colonies countable (thus 10,000 CFU/mL to 100,000 CFU/mL)) | B. subtillis growth grade, 3 day ([2]; 2.5% weight/volume): 3 (100 to 1000 colonies (thus 1000 to 10,000 CFU/mL)) | B. subtillis growth grade, 14 day ([2]; 2.5% weight/volume): 2 (52 to 100 colonies counted (thus 520 to 1000 CFU/mL)) | B. subtillis growth grade, 30 day ([2]; 2.5% weight/volume): 1 (0 to 51 colonies counted (thus 10 to 510 CFU/mL based on 0.1-mL sample)) | B. subtillis growth grade, 3 day ([2]; 5.0% weight/volume): 1 (0 to 51 colonies counted (thus 10 to 510 CFU/mL based on 0.1-mL sample)) | B. subtillis growth grade, 14 day ([2]; 5.0% weight/volume): 0 | B. subtillis growth grade, 30 day ([2]; 5.0% weight/volume): 0 | P. vulgaris growth grade, 3 day ([3]; 0.5% weight/volume): 4 (1000 to 10,000 colonies countable (thus 10,000 CFU/mL to 100,000 CFU/mL)) | P. vulgaris growth grade, 13 day ([3]; 0.5% weight/volume): 4 (1000 to 10,000 colonies countable (thus 10,000 CFU/mL to 100,000 CFU/mL)) | P. vulgaris growth grade, 30 day ([3]; 0.5% weight/volume): 4 (1000 to 10,000 colonies countable (thus 10,000 CFU/mL to 100,000 CFU/mL)) | P. vulgaris growth grade, 3 day ([3]; 1.25% weight/volume): 3 (100 to 1000 colonies (thus 1000 to 10,000 CFU/mL)) | P. vulgaris growth grade, 13 day ([3]; 1.25% weight/volume): 2 (52 to 100 colonies counted (thus 520 to 1000 CFU/mL)) | P. vulgaris growth grade, 30 day ([3]; 1.25% weight/volume): 0 | P. vulgaris growth grade, 3 day ([3]; 2.5% weight/volume): 1 (0 to 51 colonies counted (thus 10 to 510 CFU/mL based on 0.1-mL sample)) | P. vulgaris growth grade, 13 day ([3]; 2.5% weight/volume): 0 | P. vulgaris growth grade, 30 day ([3]; 2.5% weight/volume): 0 | P. vulgaris growth grade, 3 day ([3]; 5.0% weight/volume): 0 | P. vulgaris growth grade, 13 day ([3]; 5.0% weight/volume): 0 | P. vulgaris growth grade, 30 day ([3]; 5.0% weight/volume): 0 | Grade ([4]; 0.5% (wt/vol), 3 day): 4 (1000 to 10,000 colonies countable (thus 10,000 CFU/mL to 100,000 CFU/mL)) | Grade ([4]; 0.5% (wt/vol), 13 day): 4 (1000 to 10,000 colonies countable (thus 10,000 CFU/mL to 100,000 CFU/mL)) | Grade ([4]; 0.5% (wt/vol), 30 day): 4 (1000 to 10,000 colonies countable (thus 10,000 CFU/mL to 100,000 CFU/mL)) | Grade ([4]; 1.25% (wt/vol), 3 day): 4 (1000 to 10,000 colonies countable (thus 10,000 CFU/mL to 100,000 CFU/mL)) | Grade ([4]; 1.25% (wt/vol), 13 day): 3 (100 to 1000 colonies (thus 1000 to 10,000 CFU/mL)) | Grade ([4]; 1.25% (wt/vol), 30 day): 4 (1000 to 10,000 colonies countable (thus 10,000 CFU/mL to 100,000 CFU/mL)) | Grade ([4]; 2.5% (wt/vol), 3 day): 3 (100 to 1000 colonies (thus 1000 to 10,000 CFU/mL)) | Grade ([4]; 2.5% (wt/vol), 13 day): 2 (52 to 100 colonies counted (thus 520 to 1000 CFU/mL)) | Grade ([4]; 2.5% (wt/vol), 30 day): 0 | Grade ([4]; 5.0% (wt/vol), 3 day): 0 | Grade ([4]; 5.0% (wt/vol), 13 day): 0 | Grade ([4]; 5.0% (wt/vol), 30 day): 0 | S. epidermidis growth grade, 3 day ([5]; 0.5% weight/volume): 4 (1000 to 10,000 colonies countable (thus 10,000 CFU/mL to 100,000 CFU/mL)) | S. epidermidis growth grade, 13 day ([5]; 0.5% weight/volume): 4 (1000 to 10,000 colonies countable (thus 10,000 CFU/mL to 100,000 CFU/mL)) | S. epidermidis growth grade, 30 day ([5]; 0.5% weight/volume): 4 (1000 to 10,000 colonies countable (thus 10,000 CFU/mL to 100,000 CFU/mL)) | S. epidermidis growth grade, 3 day ([5]; 1.25% weight/volume): 2 (52 to 100 colonies counted (thus 520 to 1000 CFU/mL)) | S. epidermidis growth grade, 13 day ([5]; 1.25% weight/volume): 0.7 | S. epidermidis growth grade, 30 day ([5]; 1.25% weight/volume): 2 (52 to 100 colonies counted (thus 520 to 1000 CFU/mL)) | S. epidermidis growth grade, 3 day ([5]; 2.5% weight/volume): 0.7 | S. epidermidis growth grade, 13 day ([5]; 2.5% weight/volume): 0 | S. epidermidis growth grade, 30 day ([5]; 2.5% weight/volume): 0 | S. epidermidis growth grade, 3 day ([5]; 5.0% weight/volume): 0 | S. epidermidis growth grade, 13 day ([5]; 5.0% weight/volume): 0 | S. epidermidis growth grade, 30 day ([5]; 5.0% weight/volume): 0
